Data from patent US20090062255A1, “TUMOR-TARGETING EVALUATION METHODOLOGY AND COMPOUNDS RELATED THERETO” (THALLION PHARMACEUTICALS INC., priority 2007, published 2009).
Where two headings read alike, the source gives them in different places.

Legend:
[1] = tested on: brain tumor cell lines; assay: MTT cytotoxicity, panel of brain tumor cell lines (summary); assay type: cell-based; conditions: 96 hours; read-out: IC50 values against brain tumor cell lines, range
Protocol: (§1) The cytotoxic activity of Compound 1 was further evaluated using a panel of brain tumor cell lines. This study was performed in collaboration with INSERM (Grenoble, France). Tumor cells (5,000 to 10,000 cells per well depending on their doubling time) were plated in 96-well flat-bottom plates and incubated for 24 hours before treatment. Tumor cells were then incubated for 96 hours with seven different concentrations of Compound 1: […], 0.01, and 0.001 μM. The in vitro cytotoxic activity was determined by a standard MTT assay.

[2] = target: T1, human MAPK1 (ERK1) (Homo sapiens, UniProt P27361); assay: Upstate Kinase Profiler, MAPK1 (ERK1); assay type: biochemical
T1 construct: purchased Upstate (Kinase Profiler Service; Dundee, UK)
Protocol: (§2) Unlike current Ras signalling pathway inhibitors, ECO-4601 is not a direct kinase inhibitor. This was documented by evaluating the effect of ECO-4601 on human EGFR, c-RAF, MEK1, MAPK1 (ERK1) and MAPK2 (ERK2) kinase-activity (Upstate Kinase Profiler™ Service; Dundee, UK). ECO-4601 was tested at 0.5 μM and 5 μM in a final volume of 25 μL according to standard protocols developed by Upstate Ltd. Briefly, purified recombinant human enzymes were incubated with 25 mM Tris pH 7.5 containing EGTA, a specific substrate and γ-^32P-ATP. The reaction was initiated with MgATP mix and incubated for 40 minutes at RT. The reaction was stopped by the addition of 5 μL of a 3% phosphoric acid solution; aliquots were spotted on filters and counted. Detailed procedures are available on the Millipore Upstate website.

[3] = target: T2, human EGFR (Homo sapiens, UniProt P00533); assay: Upstate Kinase Profiler, EGFR; assay type: biochemical
T2 construct: purchased Upstate (Kinase Profiler Service; Dundee, UK)
Protocol: as §2

[4] = target: T3, human MEK1 (Homo sapiens, UniProt Q02750); assay: Upstate Kinase Profiler, MEK1; assay type: biochemical
T3 construct: purchased Upstate (Kinase Profiler Service; Dundee, UK)
Protocol: as §2

[5] = tested on: 9L gliosarcoma cell line; assay: MTT cytotoxicity, 9L cell line; assay type: cell-based; conditions: 96 h, Rat
Protocol: as §1

[6] = tested on: human MiaPaCa-2 tumors; assay: Human MiaPaCa-2 tumors in mice, antitumor efficacy; assay type: in vivo; conditions: 30 mg/kg SC, Q1D×5 for 3 wk, established MiaPaCa-2 tumors
Protocol: Mice bearing established (100 mm^3) human MiaPaCa-2 tumors were dosed with 30 mg/kg (Q1D×5 for 3 wk; SC administration). The positive control group was treated with gemcitabine at 60 mg/kg once a day on Monday and Thursday (TWx4). ECO-4601 as a single agent was statistically different from the vehicle control group (P ˜0.008) following SC daily dosing resulting in a T/C of 56% (FIG. 12).

[7] = tested on: human uterine sarcoma MES-SA; assay: Growth inhibitory MTT assay, MES-SA; assay type: cell-based; conditions: 72 hours, treated over control
Protocol: Growth inhibitory activity of ECO-4601 (Compound 1) and other dibenzodiazepinone analogs was evaluated on a panel of 4 human tumor cell lines: the human uterine sarcoma MES-SA and its doxorubicin-resistant P-glycoprotein over-expressing variant, MES-SA/DX5 as well as non-aggressive and highly aggressive human breast cell lines, MCF-7 and MDA-MB-231, respectively. These four cell lines were obtained from the American Type Culture Collection (Manassas, Va.) and cultured in RPMI plus 10% fetal bovine serum (FBS) and maintained at 37° C. with 5% CO2.
Exponentially growing cells (5,000 cells per well time; cell number determined with a hemocytometer) were seeded in 96-well flat-bottom plates and allowed to grow overnight. Cells were then incubated for 72 hours with three different concentrations of ECO-4601 or analogs: 30,10, and 3 μM. The in vitro growth inhibitory activity was determined by a commercial MTT assay. All measurements were done in quadruplicate and each experiment was performed 2-3 times. The lower the value, the more cytotoxic is the compound.

[8] = tested on: GHA oligodendroglioma cell line; assay: MTT cytotoxicity, GHA cell line; assay type: cell-based; conditions: 96 h, Human
Protocol: as §1

[9] = tested on: 60 different human tumor cell lines; assay: NCI in vitro screening, 60 human tumor cell lines; assay type: cell-based; conditions: for GI50: Homo sapiens
Text: A study measuring the in vitro cytotoxic activity of Compound 1 was first performed by the NCI (National Cancer Institute, U.S. National Institutes of Health, Bethesda, Md., USA) against a panel of human cancer cell lines. This screen utilizes 60 different human tumor cell lines, representing cancers of the blood, skin, lung, colon, brain, ovary, breast, prostate, and kidney (More information available at: http://dtp.nci.nih.gov/branches/btb/ivclsp.html.) The compound was sent and tested on three occasions (Mar. 31, 2003; Dec. 1, 2003; Mar. 27, 2007).

[10] = tested on: HT-29, SF268, MDA-MB-231 and PC-3 cell lines; assay: In vitro cytotoxic activity against four cell lines (overall statement); assay type: cell-based; conditions: second test
Text: Procedures used for each series of tests are described below.
Compound 2 has an unexpected increase in cytotoxic activity compared to parent Compound 1. […] Cytotoxic activity (GI50) of Compound 2 for the other three strains was outside the expected range of concentrations used in the first tests.

T1 sequence (P27361 whole entry): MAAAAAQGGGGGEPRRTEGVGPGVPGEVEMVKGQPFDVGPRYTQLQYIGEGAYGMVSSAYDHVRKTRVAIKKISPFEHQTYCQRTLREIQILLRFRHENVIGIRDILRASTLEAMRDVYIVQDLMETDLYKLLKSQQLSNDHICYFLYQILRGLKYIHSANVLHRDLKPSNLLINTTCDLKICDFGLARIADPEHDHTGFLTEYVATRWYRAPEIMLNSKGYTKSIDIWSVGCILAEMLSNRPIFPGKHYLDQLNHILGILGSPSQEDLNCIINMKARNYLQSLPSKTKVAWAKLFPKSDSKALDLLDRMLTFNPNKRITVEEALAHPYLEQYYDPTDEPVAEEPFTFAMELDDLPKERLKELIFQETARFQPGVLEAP
T2 sequence (P00533 25-1210): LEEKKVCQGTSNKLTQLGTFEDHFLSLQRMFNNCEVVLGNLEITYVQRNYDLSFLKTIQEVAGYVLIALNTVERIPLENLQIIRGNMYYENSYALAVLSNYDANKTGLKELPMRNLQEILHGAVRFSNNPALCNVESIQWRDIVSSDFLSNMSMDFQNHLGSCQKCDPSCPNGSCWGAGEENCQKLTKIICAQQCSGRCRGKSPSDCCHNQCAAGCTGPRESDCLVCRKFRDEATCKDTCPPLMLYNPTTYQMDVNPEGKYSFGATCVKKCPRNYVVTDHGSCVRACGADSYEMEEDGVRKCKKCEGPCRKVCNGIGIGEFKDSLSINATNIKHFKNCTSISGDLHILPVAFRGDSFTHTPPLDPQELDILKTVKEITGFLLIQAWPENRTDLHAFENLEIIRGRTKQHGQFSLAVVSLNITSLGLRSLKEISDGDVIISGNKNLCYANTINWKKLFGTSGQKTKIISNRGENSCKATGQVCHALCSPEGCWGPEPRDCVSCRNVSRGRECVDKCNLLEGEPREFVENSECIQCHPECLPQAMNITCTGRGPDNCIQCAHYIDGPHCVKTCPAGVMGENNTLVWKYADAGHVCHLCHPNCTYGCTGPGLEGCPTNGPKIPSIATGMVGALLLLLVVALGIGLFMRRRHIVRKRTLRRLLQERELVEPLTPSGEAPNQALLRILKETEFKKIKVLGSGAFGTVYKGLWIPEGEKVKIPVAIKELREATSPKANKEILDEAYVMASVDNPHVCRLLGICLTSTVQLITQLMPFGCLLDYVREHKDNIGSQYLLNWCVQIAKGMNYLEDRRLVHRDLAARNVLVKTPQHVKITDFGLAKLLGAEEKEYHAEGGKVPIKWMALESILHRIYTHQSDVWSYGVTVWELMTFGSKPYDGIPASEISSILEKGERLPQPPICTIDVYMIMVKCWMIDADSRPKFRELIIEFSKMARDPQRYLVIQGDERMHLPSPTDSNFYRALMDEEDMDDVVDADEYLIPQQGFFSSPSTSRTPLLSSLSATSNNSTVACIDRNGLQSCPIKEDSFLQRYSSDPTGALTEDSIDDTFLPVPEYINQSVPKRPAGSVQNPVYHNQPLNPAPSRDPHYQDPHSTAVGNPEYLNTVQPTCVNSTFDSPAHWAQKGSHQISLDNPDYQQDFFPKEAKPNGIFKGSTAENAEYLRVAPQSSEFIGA
T3 sequence (Q02750 whole entry): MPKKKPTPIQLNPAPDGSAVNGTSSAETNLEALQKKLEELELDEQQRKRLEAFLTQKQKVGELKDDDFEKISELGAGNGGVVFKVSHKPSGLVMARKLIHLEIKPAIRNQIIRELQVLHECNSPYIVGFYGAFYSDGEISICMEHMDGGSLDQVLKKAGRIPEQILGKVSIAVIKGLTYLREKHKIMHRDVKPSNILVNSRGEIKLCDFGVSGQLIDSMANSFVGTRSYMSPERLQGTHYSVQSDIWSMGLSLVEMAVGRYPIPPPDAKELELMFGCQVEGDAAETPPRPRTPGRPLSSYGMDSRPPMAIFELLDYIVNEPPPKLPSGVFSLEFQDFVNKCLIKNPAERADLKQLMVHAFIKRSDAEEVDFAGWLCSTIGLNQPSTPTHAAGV

For `CC(C)=CCC/C(C)=C/CC/C(C)=C/CN1C(=O)c2cccc(O)c2Nc2c(O)cc(O)cc21` [Compound 1, 10-farnesyl-4,6,8-trihydroxy-5,10-dihydrodibenzo[b,e][1,4]diazepin-11-one], the IC50 [1] was 1.6 to 8.9 µM, the “direct inhibition of ERK1 kinase activity (in words)” value ([2]; 0.5 μM and 5 μM) was “does not directly inhibit” and the activity at 0.5 µM ([2]; MAPK1 (ERK1), 0.5 μM, % of enzyme activity over positive control, read-out: Kinase Activity (%) ± SD) was 97 ± 2%. The activity at 5 µM ([2]; MAPK1 (ERK1), 5 μM, % of enzyme activity over positive control, read-out: Kinase Activity (%) ± SD) was 73 ± 3%, the “direct inhibition of EGFR kinase activity (in words)” value ([3]; 0.5 μM and 5 μM) was “does not directly inhibit” and the activity at 0.5 µM ([3]; EGFR, 0.5 μM, % of enzyme activity over positive control, read-out: Kinase Activity (%) ± SD) was 128 ± 6%. For the same compound, the activity at 5 µM ([3]; EGFR, 5 μM, % of enzyme activity over positive control, read-out: Kinase Activity (%) ± SD) was 127 ± 9%, the “direct inhibition of MEK1 kinase activity (in words)” value ([4]; 0.5 μM and 5 μM) was “does not directly inhibit” and the activity at 0.5 µM ([4]; MEK1, 0.5 μM, % of enzyme activity over positive control, read-out: Kinase Activity (%) ± SD) was 106 ± 2%. For the same compound, the activity at 5 µM ([4]; MEK1, 5 μM, % of enzyme activity over positive control, read-out: Kinase Activity (%) ± SD) was 98 ± 1%, the IC50 [5] was 8.3 ± 3.8 µM and the T/C [6] was 56%. The “% T/C at 10 μM” value [7] was 78%, the IC50 [8] was 1.6 ± 0.7 µM and the “cytotoxic activity in NCI in vitro screening (in words)” value ([9]; 60 cell lines) was “low micromolar range”. For the same compound, the GI50 ([9]; Breast carcinoma cell, breast carcinoma cell lines, read-out: GI50 range) was 1.4 to 16.3 µM, the GI50 ([9]; CNS (glioblastoma) cell lines, read-out: GI50 range) was 2 to 6.5 µM and the GI50 ([9]; Colon carcinoma cell, colon carcinoma cell lines, read-out: GI50 range) was 3 to 17.3 µM. It also gave a GI50 ([9]; Ovarian carcinoma cell, ovarian carcinoma cell lines, read-out: GI50 range) of 2.5 to 6.2 µM, a GI50 ([9]; leukemia cell lines, read-out: GI50 range) of 0.9 to 5 µM and a GI50 ([9]; melanoma cell lines, read-out: GI50 range) of 1.8 to 8.1 µM. For the same compound, the GI50 ([9]; non-small cell lung carcinoma cell lines, read-out: GI50 range) was 1.9 to 10.8 µM, the GI50 ([9]; prostate carcinoma cell lines, read-out: GI50) was 3.5 to 9.3 µM and the GI50 ([9]; renal carcinoma cell lines, read-out: GI50 range) was 2.9 to 14.5 µM.
For `CC(C)=CCC/C(C)=C/CC/C(C)=C/CN1C(=O)c2cccc(O)c2N(C)c2c(O)cc(O)cc21` [Compound 2, 10-farnesyl-4,6,8-trihydroxy-5-methyl-5,10-dihydro-dibenzo[b,e][1,4]diazepin-11-one], the “increase in potency compared to Compound 1” value [10] was 100 fold.
